Test results: patent US9695155B2, “Herbicidal substituted pyrimidinyloxy benzene compounds” (E. I. DU PONT DE NEMOURS AND COMPANY, priority 2013, dated 2017)

Key:
oilseed rape = experiment: Test C preemergence; type: in vivo, Brassica napus; details: Brassica napus, pre-emergence, preemergence, read-out: Oilseed Rape plant response rating
Summary of the method: (§1)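 Preemergence: seeds sown in a loam soil–sand blend and sprayed with test chemical in a non-phytotoxic solvent mixture containing surfactant. Postemergence: plants at 2 to 18 cm (1- to 4-leaf stage) in peat-based medium, treated with the same formulation. Greenhouse 13 to 15 days, then visual rating 0 (no effect) to 100 (complete control).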

pigweed = experiment: Test C preemergence; type: in vivo, Amaranthus retroflexus; details: Amaranthus retroflexus, pre-emergence, preemergence, read-out: Pigweed plant response rating
Summary of the method: as §1

kochia [1] = experiment: Test A preemergence; type: in vivo, Kochia scoparia; details: 0 to 100 scale where 0 is no effect and 100 is complete control
Summary of the method: (§2)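 Greenhouse pot test, loam/sand soil. Formulation: non-phytotoxic solvent mix plus surfactant. Pre: directed spray onto soil after sowing. Post: plants at 1–2 leaf, 2–10 cm. Rated visually vs untreated controls at ~10 d, 0 (no effect) to 100 (complete control).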

morningglory = experiment: Test C preemergence; type: in vivo, Ipomoea coccinea; details: Ipomoea, pre-emergence, preemergence, read-out: Morningglory plant response rating
Summary of the method: as §1

blackgrass [2] = experiment: Test C preemergence; type: in vivo, Alopecurus myosuroides; details: Alopecurus myosuroides, pre-emergence
Summary of the method: as §1

ragweed = experiment: Test C preemergence; type: in vivo, Ambrosia elatior; details: Ambrosia artemisiifolia, pre-emergence, preemergence, read-out: Ragweed plant response rating
Summary of the method: as §1

giant foxtail = experiment: Test C preemergence; type: in vivo, Setaria faberii; details: Setaria faberi, pre-emergence
Summary of the method: as §1

velvetleaf = experiment: Test C preemergence; type: in vivo, Abutilon theophrasti; details: Abutilon theophrasti, pre-emergence, preemergence, read-out: Velvetleaf plant response rating
Summary of the method: as §1

galium [3] = experiment: Test A postemergence; type: in vivo, Galium aparine; details: 0 to 100 scale where 0 is no effect and 100 is complete control
Summary of the method: as §2

lambsquarters = experiment: Test C preemergence; type: in vivo, Chenopodium album; details: Chenopodium album, pre-emergence, preemergence, read-out: Lambsquarters plant response rating
Summary of the method: as §1

blackgrass [4] = experiment: Test A postemergence; type: in vivo, Alopecurus myosuroides; details: 0 to 100 scale where 0 is no effect and 100 is complete control
Summary of the method: as §2

Italian ryegrass = experiment: Test A postemergence; type: in vivo, Lolium multiflorum; details: 0 to 100 scale where 0 is no effect and 100 is complete control
Summary of the method: as §2

soybean = experiment: Test C preemergence; type: in vivo, Glycine max; details: Glycine max, pre-emergence, preemergence, read-out: Soybean plant response rating
Summary of the method: as §1

kochia [5] = experiment: Test A postemergence; type: in vivo, Kochia scoparia; details: 0 to 100 scale where 0 is no effect and 100 is complete control
Summary of the method: as §2

galium [6] = experiment: Test C preemergence; type: in vivo, Galium aparine; details: Galium, pre-emergence
Summary of the method: as §1

barnyardgrass = experiment: Test C preemergence; type: in vivo, Echinochloa crus-galli; details: Echinochloa crus-galli, pre-emergence
Summary of the method: as §1

large (Lg) crabgrass = experiment: Test C preemergence; type: in vivo, Digitaria sanguinalis; details: Digitaria sanguinalis, pre-emergence
Summary of the method: as §1

waterhemp = experiment: Test C preemergence; type: in vivo, Amaranthus rudis; details: Amaranthus tuberculatus, pre-emergence, preemergence, read-out: Waterhemp plant response rating
Summary of the method: as §1

[7] = 16 g ai/ha, scale 0 to 100 (0 no effect, 100 complete control)
[8] = 62 g ai/ha, scale 0 (no effect) to 100 (complete control)
[9] = 125 g ai/ha, scale 0 (no effect) to 100 (complete control)

FC(F)c1cn(-c2ccccc2Oc2ncc(Cl)cn2)nn1 [Compound 147, 5-chloro-2-[2-[4-(difluoromethyl)-1H-1,2,3-triazol-1-yl]phenoxy]pyrimidine]
plant injury at 16 g/ha (oilseed rape; [7]): 100%
plant injury at 62 g/ha (oilseed rape; [8]): 100%
plant injury at 125 g/ha (oilseed rape; [9]): 100%
pest or weed control at 16 g/ha (pigweed; [7]): 100%
pest or weed control at 62 g/ha (pigweed; [8]): 100%
pest or weed control at 125 g/ha (pigweed; [9]): 100%
Plant response rating, Kochia (kochia [1]; 125 g ai/ha): 100
Kochia plant response rating (kochia [1]; 500 g ai/ha): 100
pest or weed control at 16 g/ha (morningglory; [7]): 40%
pest or weed control at 62 g/ha (morningglory; [8]): 95%
pest or weed control at 125 g/ha (morningglory; [9]): 100%
pest or weed control at 16 g/ha (blackgrass [2]; 16 g ai/ha, preemergence, scale 0 to 100 (0 no effect, 100 complete control), read-out: Blackgrass plant response rating): 0%
pest or weed control at 62 g/ha (blackgrass [2]; 62 g ai/ha, preemergence, scale 0 (no effect) to 100 (complete control), read-out: Blackgrass plant response rating): 50%
pest or weed control at 125 g/ha (blackgrass [2]; 125 g ai/ha, preemergence, scale 0 (no effect) to 100 (complete control), read-out: Blackgrass plant response rating): 90%
pest or weed control at 31 g/ha (blackgrass [2]; Preemergence, 31 g ai/ha, scale 0 to 100, 0 no effect, 100 complete control, read-out: Plant response rating, Blackgrass): 40%
pest or weed control at 16 g/ha (ragweed; [7]): 75%
pest or weed control at 62 g/ha (ragweed; [8]): 98%
pest or weed control at 125 g/ha (ragweed; [9]): 100%
pest or weed control at 16 g/ha (giant foxtail; 16 g ai/ha, preemergence, scale 0 to 100 (0 no effect, 100 complete control), read-out: Foxtail, Giant plant response rating): 70%
pest or weed control at 62 g/ha (giant foxtail; 62 g ai/ha, preemergence, scale 0 (no effect) to 100 (complete control), read-out: Foxtail, Giant plant response rating): 100%
pest or weed control at 125 g/ha (giant foxtail; 125 g ai/ha, preemergence, scale 0 (no effect) to 100 (complete control), read-out: Foxtail, Giant plant response rating): 100%
pest or weed control at 31 g/ha (giant foxtail; Preemergence, 31 g ai/ha, scale 0 to 100, 0 no effect, 100 complete control, read-out: Plant response rating, Foxtail, Giant): 100%
pest or weed control at 16 g/ha (velvetleaf; [7]): 100%
pest or weed control at 62 g/ha (velvetleaf; [8]): 100%
pest or weed control at 125 g/ha (velvetleaf; [9]): 100%
Galium plant response rating (galium [3]; 125 g ai/ha): 100
Plant response rating, Galium (galium [3]; 500 g ai/ha): 100
pest or weed control at 16 g/ha (lambsquarters; [7]): 100%
pest or weed control at 62 g/ha (lambsquarters; [8]): 100%
pest or weed control at 125 g/ha (lambsquarters; [9]): 100%
Blackgrass plant response rating (blackgrass [4]; 125 g ai/ha): 100
Plant response rating, Blackgrass (blackgrass [4]; 500 g ai/ha): 100
Ryegrass, Italian plant response rating (Italian ryegrass; 125 g ai/ha): 70
Plant response rating, Ryegrass, Italian (Italian ryegrass; 500 g ai/ha): 90
plant injury at 16 g/ha (soybean; [7]): 85%
plant injury at 62 g/ha (soybean; [8]): 95%
plant injury at 125 g/ha (soybean; [9]): 95%
Kochia plant response rating (kochia [5]; 125 g ai/ha): 100
Plant response rating, Kochia (kochia [5]; 500 g ai/ha): 100
pest or weed control at 16 g/ha (galium [6]; 16 g ai/ha, preemergence, scale 0 to 100 (0 no effect, 100 complete control), read-out: Galium plant response rating): 90%
pest or weed control at 62 g/ha (galium [6]; 62 g ai/ha, preemergence, scale 0 (no effect) to 100 (complete control), read-out: Galium plant response rating): 98%
pest or weed control at 125 g/ha (galium [6]; 125 g ai/ha, preemergence, scale 0 (no effect) to 100 (complete control), read-out: Galium plant response rating): 98%
pest or weed control at 31 g/ha (galium [6]; Preemergence, 31 g ai/ha, scale 0 to 100, 0 no effect, 100 complete control, read-out: Plant response rating, Galium): 98%
pest or weed control at 16 g/ha (barnyardgrass; 16 g ai/ha, preemergence, scale 0 to 100 (0 no effect, 100 complete control), read-out: Barnyardgrass plant response rating): 10%
pest or weed control at 62 g/ha (barnyardgrass; 62 g ai/ha, preemergence, scale 0 (no effect) to 100 (complete control), read-out: Barnyardgrass plant response rating): 90%
pest or weed control at 125 g/ha (barnyardgrass; 125 g ai/ha, preemergence, scale 0 (no effect) to 100 (complete control), read-out: Barnyardgrass plant response rating): 100%
pest or weed control at 31 g/ha (barnyardgrass; Preemergence, 31 g ai/ha, scale 0 to 100, 0 no effect, 100 complete control, read-out: Plant response rating, Barnyardgrass): 80%
pest or weed control at 16 g/ha (large (Lg) crabgrass; 16 g ai/ha, preemergence, scale 0 to 100 (0 no effect, 100 complete control), read-out: Crabgrass, Large plant response rating): 98%
pest or weed control at 62 g/ha (large (Lg) crabgrass; 62 g ai/ha, preemergence, scale 0 (no effect) to 100 (complete control), read-out: Crabgrass, Large plant response rating): 100%
pest or weed control at 125 g/ha (large (Lg) crabgrass; 125 g ai/ha, preemergence, scale 0 (no effect) to 100 (complete control), read-out: Crabgrass, Large plant response rating): 100%
pest or weed control at 31 g/ha (large (Lg) crabgrass; Preemergence, 31 g ai/ha, scale 0 to 100, 0 no effect, 100 complete control, read-out: Plant response rating, Crabgrass, Large): 100%
pest or weed control at 16 g/ha (waterhemp; [7]): 100%
pest or weed control at 62 g/ha (waterhemp; [8]): 100%
pest or weed control at 125 g/ha (waterhemp; [9]): 100%
